Laboratory results: patent publication US20240300913A1, “FLAVONE DERIVATIVE AND USE THEREOF FOR IMPROVING PULMONARY FIBROSIS” (A-CHEMBIO CO., LTD, priority 2023, published 2024)

Key:
[1] = system: HULEC-5a cells; test: MTT cytotoxicity evaluation in HULEC-5a cells; format: cell-based, human; details: incubated for 24, 48, and 72 hours
Procedure: To confirm the effect of novel flavone derivative I on cell viability, HULEC-5a, human lung microvascular endothelial cells, were used to examine cell viability with MTT [3-(4,5-dimethylthiazol-2-yl)-2,5-diphenyltetrazolium bromide]. After being suspended in a medium, HULEC-5a cells were dispensed into a 96-well plate and incubated for 24 hours. […] After incubation, all media was removed, and MTT was diluted (0.5 mg/mL) in phosphate-buffered saline (PBS). Then, 200 μL of the diluted MTT was dispensed into each well, and incubation was performed in a CO2 incubator for 4 hours. After 4 hours, the MTT solution was removed, and 160 μL of dimethyl sulfoxide (DMSO) was dispensed into each well to dissolve the formazan precipitate for 30 minutes. Next, the absorbance was measured at 570 nm.
(§1) Cytotoxicity tests of novel flavone derivative II (Achem II) on A549 cells, HULEC-5a cells, and HLF cells were performed in the same manner as in Example 1 above, using the MTT assay. The results thereof are shown in FIGS. 17 to 19 as cell viability (%) after 24, 48, and 72 hours compared to that of the control group, the untreated sample group.
as §1, with “III” for “II”, “III)” for “II)”, “27” for “17”, “29” for “19”

[2] = system: HULEC-5a cells; test: Effect upon TGF-β1 treatment in Hulec-5a cells (western blot of protein levels); format: cell-based, human
Procedure: (§2) 1.2×10^6 Hulec-5a cells, derived from pulmonary vessels, were suspended in a medium, dispensed into a 100-mm plate, and incubated for 24 hours. After 24 hours of incubation, each plate was treated with TGF-β1 (10 ng/ml) alone or in combination with novel flavone derivative I at varying concentrations or a predetermined concentration and/or nintedanib (NIDB), a therapeutic drug for idiopathic pulmonary fibrosis and interstitial lung disease. After 3, 24, and 48 hours of incubation, the cells were lysed with RIPA lysis buffer ([50 mM Tris]-Cl (pH, 7.4), 1% NP-40, 150 mM NaCl, 1 mM EDTA, and 1 mM phenylmethylsulfonyl fluoride (PMSF)) containing MG-132 (10 μM, proteasome inhibitor, protect the HIF-1α subunit from proteasome degradation). Next, only the supernatant was collected by centrifugation (at 13,000 rpm for 7 minutes) at 4° C., and the proteins were separated by SDS-polyacrylamide gel electrophoresis (SDS-PAGE). The separated proteins were transferred to a polyvinylidene difluoride membrane (PVDF membrane), reacted in 5% nonfat dry milk for 2 hours, and then reacted with primary antibodies at 4° C. overnight. After overnight, the proteins further reacted with secondary antibodies corresponding to the respective primary antibodies. Then, the protein band was examined, according to the manufacturer's protocol, using an ECL kit.
The effect of novel flavone derivative II upon TGF-β1 treatment in Hulec-5a cells was evaluated in the same manner as in Example 1 above.
The effect of novel flavone derivative III upon TGF-β1 treatment in Hulec-5a cells was evaluated in the same manner as in Example 1 above.

[3] = system: HLF cells; test: Effect upon TGF-β1 treatment in HLF cells (western blot of protein levels); format: cell-based, human
Procedure: as §2, with “After suspending 5×10^6 human lung fibroblast (HLF) cells in a medium, […]” for “1.2×10^6”, “[…]” for “in a”, “hours. […]” for “hours.”, “24” for “24 hours of incubation, each plate was treated with TGF-β1 (10 ng/ml) alone or in combination with novel flavone derivative I at varying concentrations or a predetermined concentration and/or nintedanib (NIDB), a therapeutic drug for idiopathic pulmonary fibrosis and interstitial lung disease. After 3, 24,”
The effect of novel flavone derivative II upon TGF-β1 treatment in HLF cells was evaluated in the same manner as in Example 1 above.
The effect of novel flavone derivative III upon TGF-β1 treatment in HLF cells was evaluated in the same manner as in Example 1 above.

[4] = system: A549 cells; test: Effect upon TGF-β1 treatment in A549 cells (western blot of protein levels); format: cell-based
Procedure: 3.5*10^5 A549 cells, derived from lung cancer, were suspended in a medium, dispensed into a 60-mm plate, and incubated for 48 hours. After 48 hours of incubation, each plate was treated with TGF-β1 (10 ng/ml) alone or in combination with novel flavone derivative I at varying concentrations or a predetermined concentration and/or nintedanib (NIDB), a therapeutic drug for idiopathic pulmonary fibrosis and interstitial lung disease as a positive control. […] Next, only the supernatant was collected by centrifugation (at 14,000 rpm for 10 minutes) at 4° C., and the proteins were separated by SDS-polyacrylamide gel electrophoresis (SDS-PAGE). The separated proteins were transferred to a polyvinylidene difluoride membrane (PVDF membrane), reacted in 5% nonfat dry milk for 3 hours, and then reacted with primary antibodies at 4° C. for 12 hours. After 12 hours, the proteins further reacted with secondary antibodies corresponding to the respective primary antibodies. Then, the protein band was examined, according to the manufacturer's protocol, using an ECL kit.
The effect of novel flavone derivative II upon TGF-β1 treatment in A549 cells was evaluated in the same manner as in Example 1 above. FIGS. 20 and 21 show the results thereof.
The effect of novel flavone derivative III upon TGF-β1 treatment in A549 cells was evaluated in the same manner as in Example 1 above.

| Structure (SMILES) | cytotoxicity ([1]; treatment concentrations of up to 5 μM, MTT) | levels of fibrosis-related factors (Fibronectin, α-SMA, NOX1, NOX2, and NOX4), increased by TGF-β1 treatment ([2]; HULEC-5a cells, 10 ng/mL TGF-β1 and/or 5 μM compound, 3, 24, and 48 hours, FIG. 9) | levels of fibrosis-related factors (fibronectin, COL4, α-SMA, and HIF-1α), increased by TGF-β1 treatment ([3]; 5 ng/mL TGF-β1 and 1 and 3 μM compound, 24 hours, FIG. 10) | levels of fibronectin, HIF-1α, NOX2, NOX4, vimentin, p-EGFR, EGFR, and p-AKT proteins, increased by TGF-β1 treatment ([4]; 10 ng/mL TGF-β1 and 5 μM compound, 24 hours, FIG. 7) | levels of fibronectin, HIF-1α, and p-c-Src proteins, increased by TGF-β1 treatment ([4]; 10 ng/mL TGF-β1 and 5 μM compound, 48 hours, FIG. 8) | cell viability ([1]; all treatment concentrations up to 10 μM, compared to untreated control) [%] | levels of fibronectin, COL4, α-SMA, and HIF-1α, increased by TGF-β1 treatment ([2]; Hulec-5a cells, TGF-β1 treatment, FIG. 22) | levels of fibronectin, α-SMA, HIF-1α, and COL1, increased by TGF-β1 treatment ([3]; TGF-β1 treatment, FIG. 23) | levels of Col3, Col4, fibronectin, and NOX4 proteins, increased by TGF-β treatment ([4]; 10 ng/mL TGF-β1 and compound, 24 hours, FIGS. 20 and 21) |
| --- | --- | --- | --- | --- | --- | --- | --- | --- | --- |
| COc1ccc(-c2c(-c3ccc(O)c(O)c3)oc3cc(OC)c(OC)cc3c2=O)cc1 [novel flavone derivative I, 2-(3,4-dihydroxyphenyl)-6,7-dimethoxy-3-(4-methoxyphenyl)-4H-chromen-4-one] | No cytotoxicity was observed | decreased | decreased | decreased | decreased | – | – | – | – |
| COc1ccc(-c2c(-c3ccc(O)c(OC)c3)oc3cc(OC)c(OC)cc3c2=O)cc1 [novel flavone derivative II, 2-(4-hydroxy-3-methoxyphenyl)-6,7-dimethoxy-3-(4-methoxyphenyl)-4H-chromen-4-one] | – | – | – | – | – | ≥ 80 | decreased | decreased | decreased |
